Assay results as given in patent US10045999B2, “Nutritional composition for the stimulation of muscle protein synthesis” (N. V. Nutricia, priority 2010, dated 2018).
Marks after values point to notes of the source that are not given here.

Tested on: C2C12 myotubes
Assay: Protein synthesis rate (FSR) in C2C12 myotubes after pretreatment with 1,25(OH)2 Vitamin D3, with or without leucine and insulin
Assay type: cell-based, mouse
Details: for increase in muscle protein synthesis rate: C2C12 myotubes treated only with vitamin D3, with leucine alone, or with both; for change (%) in protein synthesis rate vs no pretreatment with vitamin D3: 72 h pretreatment
Experimental: An experimental in vitro study is performed to evaluate the synergistic or additional action of leucine and vitamin D on intracellular pathways regulating protein synthesis in muscle cells.
C2C12 mouse myoblasts are obtained from the American Type Culture Source Collection (no. CRL-1772). Myoblasts are cultured at 37° C. in an atmosphere of 5% CO2 in grown medium consisting of Dulbecco's modified Eagle's medium (DMEM) supplemented with 10% foetal calf serum and antibiotics. Myotube C2C12 differentiation is induced by withdrawing foetal calf serum from confluent cells and adding 10 μg/ml insulin, 5 μg/ml transferrin and 2% horse serum.
Confluent C2C12 myotubes are treated with vehicles alone or with different doses of 1,25(OH)2 D3. Subsequently, the cells are deprived of horse serum by incubation in a serum-free medium for the two remaining hours. During this deprivation period, different amounts of leucine and insulin are added to the medium before harvesting cells.
Medium with or without leucine supplementation are used to assess the synergistic or additional action of leucine and vitamin D on intracellular pathways regulating protein synthesis (Akt, mTOR) and/or on direct measure of protein synthesis.
Protein synthesis rate (FSR) in C2C12 myotubes after 72 h pretreatments with 0, 1 or 10 nm of 1,25(OH)2 Vitamin D3 is depicted in FIG. 1.
FIG. 1: Protein synthesis rate (FSR) in C2C12 myotubes after 72 h pretreatments with 0, 1 or 10 nm of 1,25(OH)2 Vitamin D3.

With `CC(C)C[C@H](N)C(=O)O` [leucine, L-leucine] the “increase in muscle protein synthesis rate” value was 10.7%.

`C=C1/C(=C\C=C2/CCC[C@]3(C)[C@@H]([C@H](C)CCCC(C)(C)O)CC[C@@H]23)C[C@@H](O)C[C@@H]1O` [Vitamin D, 1,25-dihydroxycholecalciferol] was tested, and the “increase in muscle protein synthesis rate” value was 14.3%, the “effect on muscle protein synthesis (in words)” value (C2C12 myotubes, vitamin D3 dose 1 or 10 nM) was “can stimulate muscle protein synthesis independently of leucine presence” and the “change (%) in protein synthesis rate vs no pretreatment with vitamin D3” value (“change (%) … vs no pretreatment with vitamin D3” below) ([Vitamin D] = 1 nM, Ins + leu, vs [Vit D] = 0 Ins + leu) was 9.8* %. The “change (%) … vs no pretreatment with vitamin D3” value ([Vitamin D] = 1 nM, No stim, vs [Vit D] = 0 No stim) was 14.0* %, the “change (%) … vs no pretreatment with vitamin D3” value ([Vitamin D] = 10 nM, Ins + leu, vs [Vit D] = 0 Ins + leu) was 14.3* % and the “change (%) … vs no pretreatment with vitamin D3” value ([Vitamin D] = 10 nM, No stim, vs [Vit D] = 0 No stim) was 14.3* %.
